Measurements: US20250032651A1, “[177LU] LUTETIUM-PSMA I&T COMPOSITION AND DOSIMETRY, KIT, METHOD OF MAKING, AND METHOD OF USING THEREOF” (Curium US LLC, priority 2022, published 2025)
Where “and” joins values, the source holds several entries; their conditions need not be identical. Equal values may be shown once.

Test: Plasma PK: gamma-counted plasma radioactivity, bi-exponential fit
Format: in vivo, human
Description: Additionally, for PK assessment, whole blood samples were collected at six timepoints (Pre-Infusion, 1 h, 4 h, 24 h, 48 h, and 168 h) and processed to extract plasma. All plasma samples were gamma counted locally for analysis of pharmacokinetics.
PK plasma samples were collected at pre-Infusion, 1 h, 4 h, 24 h, 48 h, and 168 h, and counted for radioactivity. Blood samples were first centrifuged to extract plasma, and then the radioactivity in plasma was counted in a gamma counter.
Whole blood samples were collected as detailed in the protocol Schedule of Events i.e. pre-injection, and then at 1 h, 4 h, 24 h, 48 h, and 168 h post-injection. The samples were first centrifuged to separate plasma, and the radioactivity in the plasma was then measured using a gamma counter. Plasma concentrations were subsequently fitted with a bi-exponential function to derive outcome parameters such as the half-life and clearance rate of the radiopharmaceutical in the plasma.

[1] = Cycle 1, plasma radioactivity, bi-exponential fit
[2] = plasma, Cycle 1, excluding patient 42-030
[3] = plasma, Cycle 1, individual patient values
[4] = plasma, Cycle 1, individual patients

O=C([O-])CC[C@H](NC(=O)N[C@@H](CCCCNC(=O)CCCCCCC(=O)NCCCC[C@@H](NC(=O)[C@@H](Cc1ccccc1)NC(=O)[C@@H](Cc1ccc(O)c(I)c1)NC(=O)CC[C@H](C(=O)[O-])N1CCN(CC(=O)[O-])CCN(CC(=O)[O-])CCN(CC(=O)[O-])CC1)C(=O)[O-])C(=O)[O-])C(=O)[O-].[177Lu+3].[H+].[H+].[H+].[H+].[H+] [^177Lu-PSMA I&T, (3S,7S,26R,29R,32R,37R)-29-benzyl-32-(4-hydroxy-3-iodobenzyl)-5,13,20,28,31,34-hexaoxo-37-(4,7,10-tris(carboxymethyl)-1,4,7,10-tetraazacyclododecan-1-yl)-4,6,12,21,27,30,33-heptaazaheptatriacontane-1,3,7,26,37-pentacarboxylic acid; lutetium-177 (III)]
plasma clearance (Cycle 1): 13.06 ± 16.50 L/h
plasma half-life, outlier value (Cycle 1, patient 42-030 (superscan)): 113.96 h
time to peak plasma concentration (Cycle 1, patient 80-007, first post-administration sample delayed): 127 min
plasma mean distribution half-life [1]: 1.89 ± 0.34 h
plasma mean elimination half-life [1]: 14.7 ± 10.1 h and 14.70 ± 10.10 h
distribution volume (Cycle 1 plasma PK): moderate-to-high
AUC Total (plasma, Cycle 1, Mean): 22.77 fIA/L × min
Clearance Rate (plasma, Cycle 1, Mean): 13.06 L/h
Peak Concentration Value (plasma, Cycle 1, Mean): 0.04 fIA/L
Time of Peak Concentration (plasma, Cycle 1, Mean): 59.19 min
Vc (plasma, Cycle 1, Mean): 20.29 L
Vd (plasma, Cycle 1, Mean): 234.64 L
AUC Total, Mean [2]: 22.77 fIA/L x min
AUC Total, max [2]: 37.86 fIA/L x min
AUC Total, median [2]: 20.84 fIA/L x min
AUC Total, min [2]: 3.07 fIA/L x min
Clearance Rate, Mean [2]: 13.06 L/h
Clearance Rate, max [2]: 89.38 L/h
Clearance Rate, median [2]: 9.79 L/h
Clearance Rate, min [2]: 2.89 L/h
Distribution Half-Life, Mean [2]: 1.89 h
Distribution Half-Life, max [2]: 2.42 h
Distribution Half-Life, median [2]: 1.93 h
Distribution Half-Life, min [2]: 1.14 h
Elimination Half-Life, Mean [2]: 14.70 h
Elimination Half-Life, max [2]: 53.30 h
Elimination Half-Life, median [2]: 10.52 h
Elimination Half-Life, min [2]: 8.16 h
Peak Concentration Value, Mean [2]: 0.04 fIA/L
Peak Concentration Value, max [2]: 0.07 fIA/L
Peak Concentration Value, median [2]: 0.04 fIA/L
Peak Concentration Value, min [2]: 0.01 fIA/L
Time of Peak Concentration [2]: 33.00 min
Time of Peak Concentration, Mean [2]: 59.19 min
Time of Peak Concentration, max [2]: 127.00 min
Time of Peak Concentration, median [2]: 59.00 min
Vc, Mean [2]: 20.29 L
Vc, max [2]: 111.78 L
Vc, median [2]: 16.33 L
Vc, min [2]: 9.92 L
distribution volume (column headed "Patient"), Mean [2]: 234.64
distribution volume (column headed "Patient"), max [2]: 1365.03
distribution volume (column headed "Patient"), median [2]: 157.12
distribution volume (column headed "Patient"), min [2]: 54.60
AUC Total [3]: 30.05 fIA/L x min and 27.64 fIA/L x min and 20.58 fIA/L x min and 19.49 fIA/L x min and 3.07 fIA/L x min and 25.59 fIA/L x min and 25.58 fIA/L x min and 21.49 fIA/L x min and 26.70 fIA/L x min and 31.83 fIA/L x min and 15.14 fIA/L x min and 28.67 fIA/L x min and 17.09 fIA/L x min and 19.85 fIA/L x min and 34.96 fIA/L x min and 24.13 fIA/L x min and 13.46 fIA/L x min and 17.93 fIA/L x min and 18.79 fIA/L x min and 15.54 fIA/L x min and 19.50 fIA/L x min and 37.86 fIA/L x min and 21.09 fIA/L x min and 34.60 fIA/L x min and 33.81 fIA/L x min and 19.09 fIA/L x min and 15.16 fIA/L x min
Clearance Rate [3]: 3.89 L/h and 4.21 L/h and 9.97 L/h and 17.94 L/h and 89.38 L/h and 6.26 L/h and 9.62 L/h and 7.63 L/h and 2.82 L/h and 4.73 L/h and 21.26 L/h and 2.89 L/h and 20.65 L/h and 8.08 L/h and 5.73 L/h and 7.92 L/h and 17.68 L/h and 10.55 L/h and 14.19 L/h and 17.10 L/h and 10.68 L/h and 3.95 L/h and 13.78 L/h and 3.66 L/h and 4.78 L/h and 12.34 L/h and 10.74 L/h
Distribution Half-Life [3]: 1.14 h and 2.14 h and 1.88 h and 1.93 h and 1.69 h and 2.13 h and 2.19 h and 2.31 h and 1.81 h and 1.66 h and 1.78 h and 1.35 h and 1.77 h and 2.12 h and 1.92 h and 2.39 h and 1.30 h and 2.03 h and 2.42 h and 1.46 h and 2.05 h and 2.04 h and 2.22 h and 2.21 h and 1.67 h
Elimination Half-Life [3]: 9.61 h and 24.34 h and 15.32 h and 9.32 h and 10.58 h and 10.59 h and 12.43 h and 10.02 h and 10.46 h and 113.96 h and 9.19 h and 12.50 h and 53.30 h and 10.35 h and 9.28 h and 8.16 h and 8.92 h and 35.48 h and 8.68 h and 11.79 h and 19.98 h and 11.28 h and 9.41 h and 23.96 h and 16.65 h
Vc [3]: 21.87 L and 15.83 L and 16.82 L and 13.76 L and 111.78 L and 17.80 L and 11.45 L and 20.41 L and 38.22 L and 10.76 L and 18.90 L and 22.65 L and 15.26 L and 21.10 L and 9.92 L and 17.87 L and 22.51 L and 14.72 L and 16.91 L and 25.15 L and 17.72 L and 12.87 L and 15.24 L and 14.74 L and 11.55 L and 15.53 L and 14.35 L
distribution volume (column headed "Patient") [3]: 136.62 and 93.01 and 134.00 and 273.75 and 1365.03 and 112.27 and 139.07 and 115.14 and 463.99 and 62.71 and 383.51 and 222.08 and 308.54 and 108.16 and 67.50 and 118.24 and 227.51 and 540.13 and 177.78 and 291.02 and 307.91 and 64.25 and 187.12 and 54.60 and 165.33 and 296.49 and 148.91
Time of Peak Concentration (plasma, Cycle 1, individual patient values, time of first post-administration sample): 53.00 min and 60.00 min (6×) and 51.00 min (2×) and 58.00 min and 61.00 min (2×) and 50.00 min and 63.00 min and 57.00 min and 55.00 min and 52.00 min (2×) and 68.00 min and 71.00 min and 65.00 min and 33.00 min and 40.00 min and 69.00 min and 56.00 min and 127.00 min and 47.00 min
Peak Concentration Value (plasma, Cycle 1, individual patient values, value of first post-administration sample): 0.04 fIA/L (10×) and 0.03 fIA/L (4×) and 0.05 fIA/L (7×) and 0.01 fIA/L and 0.06 fIA/L (2×) and 0.02 fIA/L and 0.07 fIA/L (2×)
AUC Total [4]: 19.09 fIA/L × min and 15.16 fIA/L × min and 30.05 fIA/L × min and 27.64 fIA/L × min and 20.58 fIA/L × min and 19.49 fIA/L × min and 3.07 fIA/L × min and 25.59 fIA/L × min and 25.58 fIA/L × min and 21.49 fIA/L × min and 26.70 fIA/L × min and 31.83 fIA/L × min and 15.14 fIA/L × min and 28.67 fIA/L × min and 17.09 fIA/L × min and 19.85 fIA/L × min and 34.96 fIA/L × min and 24.13 fIA/L × min and 13.46 fIA/L × min and 17.93 fIA/L × min and 18.79 fIA/L × min and 15.54 fIA/L × min and 19.50 fIA/L × min and 37.86 fIA/L × min and 21.09 fIA/L × min and 34.60 fIA/L × min and 33.81 fIA/L × min
Clearance Rate [4]: 12.34 L/h and 10.74 L/h and 3.89 L/h and 4.21 L/h and 9.97 L/h and 17.94 L/h and 89.38 L/h and 6.26 L/h and 9.62 L/h and 7.63 L/h and 2.82 L/h and 4.73 L/h and 21.26 L/h and 2.89 L/h and 20.65 L/h and 8.08 L/h and 5.73 L/h and 7.92 L/h and 17.68 L/h and 10.55 L/h and 14.19 L/h and 17.10 L/h and 10.68 L/h and 3.95 L/h and 13.78 L/h and 3.66 L/h and 4.78 L/h
Peak Concentration Value [4]: 0.05 fIA/L (7×) and 0.04 fIA/L (10×) and 0.03 fIA/L (4×) and 0.01 fIA/L and 0.06 fIA/L (2×) and 0.02 fIA/L and 0.07 fIA/L (2×)
Time of Peak Concentration [4]: 47.00 min and 53.00 min and 60.00 min (6×) and 51.00 min (2×) and 58.00 min and 61.00 min (2×) and 50.00 min and 63.00 min and 57.00 min and 55.00 min and 52.00 min (2×) and 68.00 min and 71.00 min and 65.00 min and 33.00 min and 40.00 min and 69.00 min
Vc [4]: 15.53 L and 14.35 L and 21.87 L and 15.83 L and 16.82 L and 13.76 L and 111.78 L and 17.80 L and 11.45 L and 20.41 L and 38.22 L and 10.76 L and 18.90 L and 22.65 L and 15.26 L and 21.10 L and 9.92 L and 17.87 L and 22.51 L and 14.72 L and 16.91 L and 25.15 L and 17.72 L and 12.87 L and 15.24 L and 14.74 L and 11.55 L
Vd [4]: 296.49 L and 148.91 L and 136.62 L and 93.01 L and 134.00 L and 273.75 L and 1365.03 L and 112.27 L and 139.07 L and 115.14 L and 463.99 L and 62.71 L and 383.51 L and 222.08 L and 308.54 L and 108.16 L and 67.50 L and 118.24 L and 227.51 L and 540.13 L and 177.78 L and 291.02 L and 307.91 L and 64.25 L and 187.12 L and 54.60 L and 165.33 L
AUC Total (plasma, Cycle 1, max): 37.86 fIA/L × min
Clearance Rate (plasma, Cycle 1, max): 89.38 L/h
Peak Concentration Value (plasma, Cycle 1, max): 0.07 fIA/L
Time of Peak Concentration (plasma, Cycle 1, max): 127.00 min
Vc (plasma, Cycle 1, max): 111.78 L
Vd (plasma, Cycle 1, max): 1365.03 L
AUC Total (plasma, Cycle 1, median): 20.84 fIA/L × min
Clearance Rate (plasma, Cycle 1, median): 9.79 L/h
Peak Concentration Value (plasma, Cycle 1, median): 0.04 fIA/L
Vc (plasma, Cycle 1, median): 16.33 L
Vd (plasma, Cycle 1, median): 157.12 L
